Results: patent US9821002B2, “Method for alleviating radiation injury with isorhamnetin-3-O-β-D-glucoside” (Sinotai Oncology Associate., Ltd., priority 2015, dated 2017)

Assays:
BNL CL.2 cells = experiment: Apoptosis assay (FITC Annexin V/PI) after X-ray irradiation; type: cell-based, mouse; conditions: 2 h pretreatment, X-ray 15 Gy, 96 hours, mean ± SEM
From the text: (§1) Four groups of BNL CL.2 cells (i.e., a normal control group referred to as Normal Control Group 1-A, an X-ray control group referred to as X-Ray Control Group 1-A, and two experimental groups referred to as Experimental Groups 1-A to 2-A), and six groups of NMuMG cells (i.e., a normal control group referred to as Normal Control Group 1-B, an X-ray control group referred to as X-Ray Control Group 1-B, two isorhamnetin groups referred to as Isorhamnetin Groups 1 to 2, and two experimental groups referred to as Experimental Groups 1-B to 2-B), were prepared based on the procedure set forth in “Source and cultivation of cell lines” of “Experimental materials”. BNL CL.2 cells in each group were cultivated using 5 mL of a corresponding medium shown in Table 1 and a 6-cm Petri dish in an amount of 2×10^5 cells per dish. Likewise, NMuMG cells in each group were cultivated using 5 mL of a corresponding medium shown in Table 1 and a 6-cm Petri dish in an amount of 2.5×10^5 cells per dish. The cultivation was conducted in an incubator (37° C., 5% CO2) for 24 hours.
(§2) Subsequently, medium was replaced with fresh medium. The obtained cultures in Experimental Groups 1-A, 1-B, 2-A, and 2-B were pretreated with the stock solution of isorhamnetin-3-O-β-D-glucoside, and the obtained cultures in Isorhamnetin Groups 1 to 2 were pretreated with the stock solution of isorhamnetin.
(§3) The culture in each group was then cultivated in an incubator (37° C., 5% CO2) for two hours. The resultant culture was used for the following experiments in sections B to D.
(§4) The cultures in X-Ray Control Group 1-A, X-Ray Control Group 1-B, Isorhamnetin Group 1, Isorhamnetin Group 2, Experimental Group 1-A, Experimental Group 1-B, Experimental Group 2-A, and Experimental Group 2-B, prepared according to section A of “Experimental procedures” in this example, were subjected to X-ray irradiation using a linear accelerator at a dose of 15 Gy. The cultures in Normal Control Groups 1-A and 1-B received no X-ray irradiation treatment. The culture of BNL CL.2 cells in each group was cultivated using a 6-cm Petri dish in an incubator (37° C., 5% CO2) for 96 hours, and the culture of NMuMG cells in each group was cultivated using a 6-cm Petri dish in an incubator (37° C., 5% CO2) for 72 hours. 1 mL of trypsin-EDTA was added to the culture in each group so as to detach the cells from the bottom of the Petri dish. Following this, 1 mL of a fresh medium (corresponding to the medium described in Table 1) was added to neutralize the activity of the trypsin, and the resultant cell suspension was transferred to a centrifuge tube with a pipette, followed by centrifugation at 1200 rpm for three minutes. The supernatant was removed, and the cell pellet thus obtained was washed once with cold PBS (pH 7.4), followed by centrifugation at 1200 rpm for 3 minutes. The supernatant was removed, and 100 μL of cold Annexin V binding buffer (BD Pharmingen™) was added to sufficiently re-suspend the cell pellet thereby obtaining a cell suspension having a cell concentration of 1.0×10^6 cells/mL. Afterward, 5 μL of FITC Annexin V (BD Pharmingen™) and 5 μL of propidium iodide (PI) staining solution (BD Pharmingen™) were added to the obtained cell suspension, followed by mixing evenly and standing in the dark at 4° C. for 30 minutes so as to obtain stained cells.
(§5) Subsequently, the stained cells were analyzed using BD Accuri™ C6 flow cytometry, in which cells that could be stained with FITC Annexin V but not with PI (i.e., FITC Annexin V positive and PI negative) represented cells that were induced with early apoptosis; cells stained with both FITC Annexin V and PI (i.e., FITC Annexin V positive and PI positive) represented cells that were induced with late apoptosis; and cells that could not be stained with FITC Annexin V and PI (i.e., FITC Annexin V negative and PI negative) represented viable cells. The number of stained cells was calculated using BD Accuri™ C6 software. […]

NMuMG cells = experiment: as above; type: cell-based, mouse; conditions: 2 h pretreatment, X-ray 15 Gy, 72 hours, mean ± SEM
From the text: as §1, §2, §3, §4, §5

## COc1cc(-c2oc3cc(O)cc(O)c3c(=O)c2O[C@@H]2O[C@H](CO)[C@@H](O)[C@H](O)[C@H]2O)ccc1O [isorhamnetin-3-O-β-D-glucoside]
BNL CL.2 cells; 5 μM
  Apoptosis percentage: 30.28 ± 3.09%
BNL CL.2 cells; 30 μM
  Apoptosis percentage: 29.35 ± 1.92 %
NMuMG cells; 15 μM
  Apoptosis percentage: 17.77 ± 0.88 %
NMuMG cells; 30 μM
  Apoptosis percentage: 16.5 ± 0.62 %
